Measured values from ChEMBL document CHEMBL1159384, “Antidiabetic dimeric guianolides and a lignan glycoside from Lactuca indica” (2003).

Tested on: Rattus norvegicus
Assay: Antidiabetic activity in STZ-diabetic rat assessed as lowering of plasma glucose level at 1 mM/kg
Assay type: functional

Structure (SMILES)	Activity [%]
C=C1C(=O)O[C@@H]2[C@H]3C(COC(=O)Cc4ccc(O)cc4)=CC(=O)C3=C(C)C[C@H](O[C@H]3CC(C)=C4C(=O)C=C(COC(=O)Cc5ccc(O)cc5)[C@@H]4[C@H]4OC(=O)[C@@H](C)[C@@H]43)[C@@H]12 [LACTUCAIN C]	-22.74
COc1cc([C@H]2O[C@@H](O)[C@@H]3[C@H]2[C@H](O[C@@H]2O[C@H](CO)[C@@H](O)[C@H](O)[C@H]2O)O[C@@H]3c2ccc(O)c(OC)c2)ccc1O [LACTUCASIDE]	-17.95
